Measurements: patent US20120070508A1, “Methods, Compositions, and Devices for Managing Chlorine Dioxide Release” (DHARMA IP, LLC, priority 2010, published 2012)

Assay: Enhanced solubility of beta-cyclodextrin in water containing ClO2 (slurry test)
Conditions: 100 g slurry, 5% (w/w) in 8000 ppm ClO2 vs ultrapure water, 200 rpm, 3 days

weight of undissolved dried beta-cyclodextrin, less than control slurry: 0.32 g
Structure (SMILES): OC[C@H]1O[C@@H]2O[C@H]3[C@H](O)[C@@H](O)[C@@H](O[C@H]4[C@H](O)[C@@H](O)[C@@H](O[C@H]5[C@H](O)[C@@H](O)[C@@H](O[C@H]6[C@H](O)[C@@H](O)[C@@H](O[C@H]7[C@H](O)[C@@H](O)[C@@H](O[C@H]8[C@H](O)[C@@H](O)[C@@H](O[C@H]1[C@H](O)[C@H]2O)O[C@@H]8CO)O[C@@H]7CO)O[C@@H]6CO)O[C@@H]5CO)O[C@@H]4CO)O[C@@H]3CO [beta-cyclodextrin]
